Assay results reported in PMC7901646, “Pyrrolo[2′,3′:3,4]cyclohepta[1,2-d][1,2]oxazoles, a New Class of Antimitotic Agents Active against Multiple Malignant Cell Types” (Journal of Medicinal Chemistry, 2020).

Tests used:
Test in all cases: MTT cell proliferation, lymphoma
Type in all cases: cell-based
HBL1 (ABC DLBCL) = settings: Homo sapiens, 72 h; for activity at 1 µM: of untreated cells, read-out: Proliferating cells (%); for IC50: MTT
Description: (§1) All compounds were further tested at the concentration of 1 μM on four cell lines derived from distinct lymphoma histotypes, plus two with secondary resistance to the PI3Kδ inhibitor idelalisib[51] or to the BTK inhibitor ibrutinib.[52] […] For comparison, the same experiments were conducted using compound 3, but the response to it was minimal, and thus it was not considered further.
(§2) Established human cell lines derived from germinal center B-cell (GCB) (SU-DHL-10), activated B-cell (ABC) (HBL1) diffuse large B-cell lymphoma (DLBCL), mantle cell lymphoma (MCL) (MINO), splenic marginal zone lymphoma (SMZL) (parental VL51, VL51 idelalisib resistant clone, VL51 ibrutinib resistant clone) were cultured in culture RPMI-1640 media supplemented with fetal bovine serum (10%), penicillin–streptomycin–neomycin (∼5,000 units of penicillin, 5 mg of streptomycinm and 10 mg of neomycin/mL, Sigma), and L-glutamine (1%). Vincristine sulfate was purchased from Sigma-Aldrich. Cell line identities were confirmed by CellCheck test (IDEXX, BioResearch, Ludwigsburg, Germany). All compounds were dissolved in dimethyl sulfoxide to obtain a stock concentration of 10 mM.
(§3) The antiproliferative activity of all compounds was assessed by using the 3-(4.5-dimethylthiazolyl-2)-2,5-diphenyltetrazolium bromide (MTT) test. Cells were seeded in 96-well plates (nontissue culture treated) at a density of 1 × 10^5 cells/mL and treated with a single concentration of 1 μM for 72 h. […] In this case, cells were treated in triplicate with serially diluted compounds in the appropriate tissue culture medium at a range of 40–10 000 nM. Cells were incubated for 72 h at 37 °C, 5% CO2. Wells containing medium only were included on each plate and served as blanks for absorbance readings. MTT (Sigma, Buchs, Switzerland) was prepared as a 5 mg/mL stock solution in phosphate buffered saline (PBS) and filter-sterilized. MTT solution (22 μL) was added to each well, and tissue culture plates were incubated at 37 °C for 4 h. Cells were then lysed with 25% sodium dodecyl sulfate lysis buffer, and absorbance was read at 570 nm using a Beckman Coulter-AD340 plate reader.

MINO (MCL) = settings: Homo sapiens, 72 h; for activity at 1 µM: of untreated cells, read-out: Proliferating cells (%); for IC50: MTT
Description: as §1, §2, §3

SU-DHL-10 (GCB DLBCL) = settings: Homo sapiens, SU-DHL10, 72 h; for activity at 1 µM: of untreated cells, read-out: Proliferating cells (%); for IC50: MTT
Description: as §1, §2, §3

VL51 (MZL) = settings: Homo sapiens, 72 h; for activity at 1 µM: of untreated cells, read-out: Proliferating cells (%); for IC50: MTT
Description: as §1, §2, §3

VL51 ibrutinib-resistant = settings: Homo sapiens, 72 h, of untreated cells, read-out: Proliferating cells (%)
Description: as §1, §2, §3

[1] = test system: VL51 idelalisib-resistant; settings: Homo sapiens, 72 h, of untreated cells, read-out: Proliferating cells (%)
Description: as §1, §2, §3

Compound	activity at 1 µM (HBL1 (ABC DLBCL))	activity at 1 µM (MINO (MCL))	activity at 1 µM (SU-DHL-10 (GCB DLBCL))	activity at 1 µM (VL51 (MZL))	activity at 1 µM (VL51 ibrutinib-resistant)	activity at 1 µM [1]	IC50 (HBL1 (ABC DLBCL))	IC50 (MINO (MCL))	IC50 (SU-DHL-10 (GCB DLBCL))	IC50 (VL51 (MZL))
CCOC(=O)c1cc2c(n1C)-c1oncc1CCC2 [Compound 60, Ethyl 9-Methyl-4,5,6,9-tetrahydropyrrolo[2′,3′:3,4]cyclohepta[1,2-d][1,2]oxazole-8-carboxylate]	146%	112%	61.7%	108%	125%	115%	–	–	–	–
CCOC(=O)c1cc2c(n1Cc1ccccc1)-c1oncc1CCC2 [Compound 61, Ethyl 9-Benzyl-4,5,6,9-tetrahydropyrrolo[2′,3′:3,4]cyclohepta[1,2-d][1,2]oxazole-8-carboxylate]	124%	106%	65.2%	93.3%	118%	117%	–	–	–	–
CCOC(=O)c1cc2c(n1Cc1ccc(OC)cc1)-c1oncc1CCC2 [Compound 64, Ethyl 9-(4-Methoxybenzyl)-4,5,6,9-tetrahydropyrrolo[2′,3′:3,4]cyclohepta[1,2-d][1,2]oxazole-8-carboxylate]	125%	112%	66.3%	87.4%	102%	116%	–	–	–	–
CCOC(=O)c1cc2c(n1Cc1cc(OC)ccc1OC)-c1oncc1CCC2 [Compound 65, Ethyl 9-(2,5-Dimethoxybenzyl)-4,5,6,9-tetrahydropyrrolo[2′,3′:3,4]cyclohepta[1,2-d][1,2]oxazole-8-carboxylate]	111%	107%	71.6%	86.2%	94%	96.4%	–	–	–	–
COC(=O)c1cc2c(n1Cc1ccccc1)-c1oncc1CCC2 [Compound 68, Methyl 9-Benzyl-4,5,6,9-tetrahydropyrrolo[2′,3′:3,4]cyclohepta[1,2-d][1,2]oxazole-8-carboxylate]	109%	98.8%	78.9%	94.5%	120%	123%	–	–	–	–
CCOC(=O)c1c(Cl)c2c(n1C)-c1oncc1CCC2 [Compound 69, Ethyl 7-Chloro-9-methyl-4,5,6,9-tetrahydropyrrolo[2′,3′:3,4]cyclohepta[1,2-d][1,2]oxazole-8-carboxylate]	103%	116%	78.5%	93.8%	110%	121%	–	–	–	–
CCOC(=O)c1c(Cl)c2c(n1Cc1ccccc1OC)-c1oncc1CCC2 [Compound 71, Ethyl 7-Chloro-9-(2-methoxybenzyl)-4,5,6,9-tetrahydropyrrolo[2′,3′:3,4]cyclohepta[1,2-d][1,2]oxazole-8-carboxylate]	97%	55.9%	58.2%	58.8%	56.2%	52.2%	> 5000 nM	3400 nM	2200 nM	2400 nM
CCOC(=O)c1c(Cl)c2c(n1Cc1cccc(OC)c1)-c1oncc1CCC2 [Compound 72, Ethyl 7-Chloro-9-(3-methoxybenzyl)-4,5,6,9-tetrahydropyrrolo[2′,3′:3,4]cyclohepta[1,2-d][1,2]oxazole-8-carboxylate]	105%	110%	76.9%	107%	103%	128%	–	–	–	–
CCOC(=O)c1c(Cl)c2c(n1Cc1ccc(OC)cc1)-c1oncc1CCC2 [Compound 73, Ethyl 7-Chloro-9-(4-methoxybenzyl)-4,5,6,9-tetrahydropyrrolo[2′,3′:3,4]cyclohepta[1,2-d][1,2]oxazole-8-carboxylate]	107%	99.5%	87.4%	113%	102%	126%	–	–	–	–
CCOC(=O)c1c(Cl)c2c(n1Cc1cc(OC)ccc1OC)-c1oncc1CCC2 [Compound 74, Ethyl 7-Chloro-9-(2,5-dimethoxybenzyl)-4,5,6,9-tetrahydropyrrolo[2′,3′:3,4]cyclohepta[1,2-d][1,2]oxazole-8-carboxylate]	29%	9.8%	13.3%	40.4%	44.4%	37.7%	1000 nM	800 nM	700 nM	500 nM
